Among the data in PubChem BioAssay AID651630 (Sanford-Burnham Center for Chemical Genomics, 2012) are IC50 cytotoxicity (DAPI nuclear signal decrease) and IC50 values, retold here.

For one assay, the system named is DAPI. The assay can be described thus: triacylglycerol accumulation inhibitor potency, dose response, cell-based, panel, Nile Red and DAPI fluorescence, H9c2 (AID 651630).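 Also: cells exposed to compound overnight before fixation and staining.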 The settings on record: H9c2 cells, DAPI nuclear fluorescence (cytotoxicity counter-readout), oleic acid.
Another assay concerns TAG. Described as above. The following applies: H9c2 cells, Nile Red TAG fluorescence, oleic acid.

Structures are written as SMILES. Active and inactive are the calls of the source.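 The calls were made as follows: active = lipid-stain IC50 at or below a set limit, with nuclear-stain toxicity IC50 at least five times higher; inactive = the rest.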

The term IC50 denotes the concentration needed to halve the response being measured. As to `CCCCCCN(C(=O)CCCCCN1C(=O)NC(c2ccc([N+](=O)[O-])cc2)C(C(=O)OCc2ccccc2)=C1C)C(C(=O)NCCCC)C1CCCCC1` (configuration not stated), the figures for the IC50 cytotoxicity (DAPI nuclear signal decrease) with DAPI (mean of runs), in the assay with DAPI (run 1) and in the assay on DAPI (run 2) were > 25 µM (inactive), more than 25 µM and more than 25 µM, respectively. The values for the IC50 with TAG (mean of runs), in the assay with TAG (run 1) and in the assay with TAG (run 2) were 5.66 µM, 3.7 µM and 7.62 µM, respectively.
For `Cc1ccc(Sc2cc(N3CCOCC3)nc(-c3ccccc3)n2)cc1`, the IC50 cytotoxicity (DAPI nuclear signal decrease) in the assay on DAPI (mean of runs) is > 25 µM (inactive); in the assay on DAPI (run 1) it was more than 25 µM; in the assay with DAPI (run 2), more than 25 µM. In addition, the IC50 was > 25 µM (inactive) in the assay on TAG (mean of runs), more than 25 µM in the assay on TAG (run 1) and more than 25 µM in the assay with TAG (run 2).
For `CCOC(=O)CSc1cccc2cccnc12`, the values for the IC50 cytotoxicity (DAPI nuclear signal decrease) in the assay on DAPI (mean of runs), in the assay on DAPI (run 1) and in the assay on DAPI (run 2) were > 25 µM (inactive), more than 25 µM and more than 25 µM, respectively. The IC50 with TAG (mean of runs) was > 25 µM (inactive); with TAG (run 1) it was more than 25 µM; with TAG (run 2), more than 25 µM.
Regarding `O=C(Nc1ccc(-c2csc(Nc3ccccc3)n2)cc1)c1cccc(C(F)(F)F)c1`, the IC50 cytotoxicity (DAPI nuclear signal decrease) in the assay on DAPI (mean of runs) is > 25 µM (inactive); in the assay with DAPI (run 1), more than 25 µM; in the assay with DAPI (run 2), more than 25 µM. For the same compound, the IC50 in the assay with TAG (run 1) was 15.3 µM; with TAG (run 2), more than 25 µM.
With `O=C(C[C@H]1C[C@H](C(=O)N2CCOCC2)[C@@]2(CCC3CCCC3)c3[nH]c4cc(-c5ccco5)ccc4c3CCN2C1=O)NCC12CC3CC(CC(C3)C1)C2`, the IC50 cytotoxicity (DAPI nuclear signal decrease) in the assay on DAPI (run 1) and with DAPI (run 2) was more than 25 µM each time. In addition, the IC50 with TAG (mean of runs) is 3.68 µM; with TAG (run 1), 4.04 µM; with TAG (run 2) it was 3.32 µM.
`COc1ccc2nc(NC(=O)c3cccc(OCc4c(C)noc4C)c3)sc2c1`: the IC50 cytotoxicity (DAPI nuclear signal decrease) was > 25 µM (inactive) with DAPI (mean of runs), more than 25 µM in the assay on DAPI (run 1) and more than 25 µM in the assay with DAPI (run 2). Also, the IC50 in the assay on TAG (mean of runs) was 17.6 µM (inactive); with TAG (run 1), 17.4 µM; in the assay on TAG (run 2), 17.8 µM.
With `COCCNC(=O)c1cc2c(-c3ccc(Cl)cc3)nn(C)c2s1`, the IC50 cytotoxicity (DAPI nuclear signal decrease) in the assay with DAPI (mean of runs) was > 25 µM (inactive); in the assay with DAPI (run 1) it was more than 25 µM; in the assay on DAPI (run 2), more than 25 µM. The IC50 is > 25 µM (inactive) in the assay on TAG (mean of runs), more than 25 µM in the assay with TAG (run 1) and more than 25 µM in the assay with TAG (run 2).
For `Cc1ccc(/C=N/NC(=O)Cc2c[nH]c3ccccc23)c(C)c1`, the IC50 cytotoxicity (DAPI nuclear signal decrease) in the assay on DAPI (mean of runs) is > 25 µM (inactive); in the assay with DAPI (run 1), more than 25 µM; in the assay with DAPI (run 2), more than 25 µM. In addition, the IC50 with TAG (run 1) is 19.8 µM; with TAG (run 2), more than 25 µM.
As to `COc1cc(-c2ccc3oc(-c4cccc(C)c4)c(C#CC4(O)CCCCC4)c3c2)cc(OC)c1OC`, the values for the IC50 cytotoxicity (DAPI nuclear signal decrease) in the assay on DAPI (mean of runs), in the assay with DAPI (run 1) and in the assay with DAPI (run 2) were > 25 µM (inactive), more than 25 µM and more than 25 µM, respectively. Further, the figures for the IC50 in the assay on TAG (mean of runs), in the assay on TAG (run 1) and in the assay with TAG (run 2) were 15.9 µM (inactive), 14.2 µM and 17.6 µM, respectively.
As to `COc1ccc(-c2nc(NC(=O)C3CCN(c4nc5ccccc5o4)CC3)sc2C)cc1`, the figures for the IC50 cytotoxicity (DAPI nuclear signal decrease) in the assay with DAPI (mean of runs), with DAPI (run 1) and with DAPI (run 2) were > 25 µM (inactive), more than 25 µM and more than 25 µM, respectively. Further, the IC50 with TAG (mean of runs) is 13 µM; with TAG (run 1) it was 15.6 µM; in the assay with TAG (run 2) it was 10.4 µM.
`CCCCCCC(C)(C)c1ccc([C@@H]2C[C@H](O)CC[C@H]2CCCO)c(O)c1`: the IC50 cytotoxicity (DAPI nuclear signal decrease) in the assay with DAPI (mean of runs) is 22 µM (inactive); in the assay on DAPI (run 1) it was 23.7 µM; in the assay on DAPI (run 2) it was 20.2 µM. Further, the IC50 was 9.3 µM in the assay on TAG (mean of runs), 7.71 µM with TAG (run 1) and 10.9 µM with TAG (run 2).
In the case of `C=CC[C@@H](CC(=O)N(CCO)Cc1ccccc1)C(=O)N[C@@H](COC(=O)[C@@H](CC=C)Cc1ccc(F)cc1)Cc1ccccc1`, the values for the IC50 cytotoxicity (DAPI nuclear signal decrease) in the assay on DAPI (mean of runs), in the assay with DAPI (run 1) and with DAPI (run 2) were > 25 µM (inactive), more than 25 µM and more than 25 µM, respectively. Moreover, the IC50 with TAG (mean of runs) was 9.33 µM; with TAG (run 1), 8.74 µM; in the assay on TAG (run 2), 9.91 µM.
For `O=C(c1ccoc1)N1CCN(c2cc(-c3cccc(F)c3)nc3cc(-c4cccc(Cl)c4)nn23)CC1`, the IC50 cytotoxicity (DAPI nuclear signal decrease) was > 25 µM (inactive) in the assay with DAPI (mean of runs), more than 25 µM in the assay with DAPI (run 1) and more than 25 µM in the assay with DAPI (run 2). The IC50 in the assay with TAG (mean of runs) is > 25 µM (inactive); with TAG (run 1), more than 25 µM; with TAG (run 2), more than 25 µM.
Consider `CC(C)c1ccc(Nc2nc(N3CCOCC3)nc(N3CCOCC3)n2)cc1`, for which the IC50 cytotoxicity (DAPI nuclear signal decrease) with DAPI (run 1) and with DAPI (run 2) was more than 25 µM throughout. Also, the IC50 is 3.9 µM in the assay with TAG (mean of runs), 4.38 µM in the assay on TAG (run 1) and 3.41 µM with TAG (run 2).
Take `CC(C)c1ccc(NC(=O)Nc2nc(C(N)COCc3ccccc3)cs2)cc1` (configuration not stated): the values for the IC50 cytotoxicity (DAPI nuclear signal decrease) in the assay on DAPI (mean of runs), in the assay with DAPI (run 1) and in the assay on DAPI (run 2) were 20.2 µM (inactive), 20.8 µM and 19.7 µM, respectively. Besides, the IC50 in the assay with TAG (run 1) is more than 25 µM; in the assay on TAG (run 2), 14 µM.
`Cc1ccc(C2C(C=Nc3c(C)n(C)n(-c4ccccc4)c3=O)=C(c3ccccc3)Oc3ccccc32)cc1` (configuration not stated): the IC50 cytotoxicity (DAPI nuclear signal decrease) was > 25 µM (inactive) in the assay with DAPI (mean of runs), more than 25 µM with DAPI (run 1) and more than 25 µM with DAPI (run 2). Further, the IC50 in the assay with TAG (mean of runs) was 7.41 µM; in the assay with TAG (run 1), 6.56 µM; in the assay with TAG (run 2), 8.27 µM.
`CSc1nc(N(C)NC(=O)c2ccc(Cl)cc2)c2ccccc2n1`: the IC50 cytotoxicity (DAPI nuclear signal decrease) in the assay with DAPI (mean of runs) is > 25 µM (inactive); with DAPI (run 1), more than 25 µM; in the assay with DAPI (run 2), more than 25 µM. Also, the IC50 is > 25 µM (inactive) in the assay on TAG (mean of runs), more than 25 µM with TAG (run 1) and more than 25 µM in the assay on TAG (run 2).
`CCOc1ccc(CN(C)C(=O)CCl)cc1`: the IC50 cytotoxicity (DAPI nuclear signal decrease) was > 25 µM (inactive) in the assay on DAPI (mean of runs), more than 25 µM in the assay on DAPI (run 1) and more than 25 µM with DAPI (run 2). Also, the IC50 with TAG (run 1) was more than 25 µM; in the assay on TAG (run 2), 22.6 µM.
For the compound `O=C(Nc1ccc(-c2csc(Nc3cccc(C(F)(F)F)c3)n2)cc1)c1cc([N+](=O)[O-])cc(C(F)(F)F)c1`, the IC50 cytotoxicity (DAPI nuclear signal decrease) in the assay on DAPI (mean of runs) is > 25 µM (inactive); in the assay with DAPI (run 1), more than 25 µM; with DAPI (run 2), more than 25 µM. For the same compound, the IC50 with TAG (mean of runs) is 10.9 µM; in the assay on TAG (run 1) it was 10.8 µM; in the assay on TAG (run 2) it was 11.1 µM.
On to `CCOc1cc(N2CCOCC2)c(OCC)cc1NC(=O)CC12CC3CC(CC(C3)C1)C2`, for which the IC50 cytotoxicity (DAPI nuclear signal decrease) in the assay on DAPI (mean of runs) was > 25 µM (inactive); with DAPI (run 1), more than 25 µM; in the assay with DAPI (run 2), more than 25 µM. In addition, the IC50 was 22.4 µM in the assay with TAG (run 1) and more than 25 µM in the assay on TAG (run 2).
With `O=C(Nc1cccc(-c2csc(Nc3ccc(Cl)cc3)n2)c1)c1cc([N+](=O)[O-])cc(C(F)(F)F)c1`, the results for the IC50 cytotoxicity (DAPI nuclear signal decrease) with DAPI (mean of runs), with DAPI (run 1) and with DAPI (run 2) were > 25 µM (inactive), more than 25 µM and more than 25 µM, respectively. Also, the IC50 in the assay on TAG (mean of runs) is 13.9 µM; in the assay with TAG (run 1), 13.4 µM; in the assay with TAG (run 2) it was 14.4 µM.
As to `O=C(C[C@H]1C[C@H](C(=O)N2CCOCC2)[C@@]2(CCC3CCCC3)c3[nH]c4ccc(Cl)cc4c3CCN2C1=O)NCC12CC3CC(CC(C3)C1)C2`, the IC50 cytotoxicity (DAPI nuclear signal decrease) in the assay on DAPI (mean of runs) was > 25 µM (inactive); in the assay with DAPI (run 1), more than 25 µM; with DAPI (run 2), more than 25 µM. The IC50 in the assay with TAG (mean of runs) is > 25 µM (inactive); in the assay with TAG (run 1) it was more than 25 µM; in the assay on TAG (run 2) it was more than 25 µM.
`COCCn1cnc2c(c1=O)c1nc3ccccc3nc1n2/N=C/c1ccc(OC)c(OC)c1`: the IC50 cytotoxicity (DAPI nuclear signal decrease) with DAPI (run 1) was 23.4 µM; in the assay on DAPI (run 2), more than 25 µM. The IC50 with TAG (mean of runs) was 5.19 µM; in the assay with TAG (run 1) it was 3.71 µM; in the assay with TAG (run 2), 6.68 µM.
Consider `C#CCN(C[C@@H]1[C@@H](OC(=O)NCc2ccco2)[C@@H](OC(=O)NCc2ccco2)CN(C(=O)OC(C)C)N1C(=O)OC(C)C)S(=O)(=O)c1ccc(C)cc1`, for which the IC50 cytotoxicity (DAPI nuclear signal decrease) with DAPI (run 1) is 16.5 µM; in the assay on DAPI (run 2), more than 25 µM. Further, the values for the IC50 with TAG (mean of runs), in the assay on TAG (run 1) and in the assay on TAG (run 2) were 15.1 µM (inactive), 16.2 µM and 14 µM, respectively.
Regarding `CCOc1cc(CNC(C)(C)C)ccc1OCC(=O)Nc1cccc(C(F)(F)F)c1`, the IC50 cytotoxicity (DAPI nuclear signal decrease) in the assay with DAPI (mean of runs) was > 25 µM (inactive); in the assay with DAPI (run 1), more than 25 µM; with DAPI (run 2), more than 25 µM. In addition, the IC50 in the assay on TAG (mean of runs) was 16.3 µM (inactive); with TAG (run 1), 15.5 µM; with TAG (run 2), 17.2 µM.
In the case of `CCOc1cc(CNc2ccc3c(c2)OCCO3)cc(Br)c1OCC`, the IC50 cytotoxicity (DAPI nuclear signal decrease) in the assay on DAPI (mean of runs) is > 25 µM (inactive); in the assay with DAPI (run 1) it was more than 25 µM; in the assay on DAPI (run 2), more than 25 µM. The results for the IC50 with TAG (mean of runs), in the assay with TAG (run 1) and in the assay on TAG (run 2) were > 25 µM (inactive), more than 25 µM and more than 25 µM, respectively.
